The values below come from patent US20110275813A1, “Bicylic 1,3-diones and Their Use as Insecticides, Acaricides and/or Fungicides” (Bayer Cropscience AG, priority 2009, published 2011).

Holding throughout (type): in vivo
One assay concerns Tetranychus urticae. The assay can be described thus: Tetranychus urticae test; OP-resistant (TETRUR spray application). Particulars: 120 h, spray on infested French beans, after 5 days. The method, then:
Tetranychus urticae—Test; OP-Resistant (TETRUR Spray Application)
(§1) Solvent: 78.0 parts by weight acetone • 1.5 parts by weight dimethylformamide
(§2) Emulsifier: 0.5 parts by weight alkylarylpolyglycolether
To produce a suitable preparation of active compound, 1 part by weight of active compound is mixed with the stated amount of solvent and emulsifier, and the concentrate is diluted with emulsifier-containing water to the desired concentration. French beans (Phaseolus vulgaris) which are heavily infested with all stages of the two spotted spidermite (Tetranychus urticae), are sprayed with a preparation of the active ingredient at the desired concentration.
After 5 days mortality in % is determined. 100% means that all spider mites have been killed and 0% means that none of the spider mites have been killed.

The subject of the next assay is Spodoptera frugiperda. The assay can be described thus: Spodoptera frugiperda test (SPODFR spray application). Particulars: 168 h, sprayed maize leaf sections, after 7 days.
Source text: Spodoptera frugiperda—Test (SPODFR Spray Application)
as §1, §2
To produce a suitable preparation of the active compound, 1 part by weight of active compound is mixed with the stated amount of solvent and emulsifier, and the concentrate is dilutes with emulsifier-containing water to the desired concentration. Maize (Zea mais) leaf sections are sprayed with a preparation of the active ingredient of the desired concentration. Once dry, the leaf sections are infested with fall armyworm larvae (Spodoptera frugiperda).
After 7 days mortality in % is determined. 100% means that all caterpillars have been killed and 0% means that none of the caterpillars have been killed.

A further assay deals with Phaedon cochleariae. Briefly: Phaedon cochleariae test (PHAECO spray application). Particulars: 168 h, sprayed Chinese cabbage leaf-disks, after 7 days. The method, then:
Phaedon cochleariae—Test; (PHAECO Spray Application)
Solvent: 78.0 parts by weight of acetone • • 1.5 parts by weight of dimethylformamide
Emulsifier: 0.5 parts by weight of alkylaryl polyglycolether
To produce a suitable preparation of active compound, 1 part by weight of active compound is mixed with the stated amount of solvent and emulsifier, and the concentrate is diluted with emulsifier-containing water to the desired concentration. Chinese cabbage (Brassica pekinesis) leaf-disks are sprayed with a preparation of the active ingredient of the desired concentration. Once dry, the leaf disks are infested with mustard beetle larvae (Phaedon cochleariae).
After 7 days mortality in % is determined. 100% means that all beetle larvae have been killed and 0% means that none of the beetle larvae have been killed.

Another assay relates to Myzus persicae. The assay can be described thus: Myzus persicae test (MYZUPE spray application). Particulars: 144 h, sprayed Chinese cabbage leaf-disks, after 6 days. As to the method: Myzus persicae—Test; (MYZUPE Spray Application)
as §1, §2
To produce a suitable preparation of active compound, 1 part by weight of active compound is mixed with the stated amount of solvent and emulsifier, and the concentrate is diluted with emulsifier-containing water to the desired concentration. Chinese cabbage (Brassica pekinesis) leaf-disks infected with all instars of the green peach aphid (Myzus persicae), are sprayed with a preparation of the active ingredient at the desired concentration.
After 6 days mortality in % is determined. 100% means that all aphids have been killed; 0% means that none of the aphids have been killed.

The test system of the next assay is Sphaerotheca fuliginea. The assay can be described thus: Sphaerotheca test (cucumber)/preventive. Conditions: preventive, 7 days after inoculation. The method, then:
Sphaerotheca Test (Cucumber)/Preventive
Solvent: 49 parts by weight of N,N-Dimethylformamide
Emulsifier: 1 part by weight of Alkylarylpolyglycolether
To produce a suitable preparation of active compound, 1 part by weight of active compound is mixed with the stated amounts of solvent and emulsifier, and the concentrate is diluted with water to the desired concentration.
To test for preventive activity, young plants are sprayed with the preparation of active compound at the stated rate of application. One day after this treatment, the plants are inoculated with an aqueous spore suspension of Sphaerotheca fuliginea. Then the plants are placed in a greenhouse at approximately 23° C. and a relative atmospheric humidity of approximately 70%.
The test is evaluated 7 days after the inoculation. 0% means an efficacy which corresponds to that of the control, while an efficacy of 100% means that no disease is observed.

A word on the mortality: it is the percentage killed.

As for `Cc1ccc(-c2ccc(Cl)cc2)cc1C1=C(O)[C@H]2CC[C@H](C2)C1=O` [Compound T1], the mortality at 500 g/ha in the assay with Tetranychus urticae (500 g/ha), in the assay with Spodoptera frugiperda (500 g/ha), in the assay with Phaedon cochleariae and in the assay on Myzus persicae was not below 80% each time. For the same compound, in the assay on Sphaerotheca fuliginea (500 ppm), the Efficacy in % is 95%.

In turn, `CC12CCC(C(=O)C(c3cc(-c4ccc(Cl)cc4)ccc3Cl)=C1O)C2(C)C` (stereo not drawn) [T 114] came in with a mortality at 20 g/ha in the assay with Tetranychus urticae (20 g/ha) not below 80%. In the assay with Sphaerotheca fuliginea (500 ppm), this compound had an Efficacy in % of 90%.

Compound `Cc1ccc(-c2ccc(Cl)cc2)cc1C1=C(O)C2(C)CCC(C1=O)C2(C)C` (stereo not drawn) [T 115] displayed a mortality at 100 g/ha in the assay on Spodoptera frugiperda (100 g/ha) not below 80%. Moreover, the Efficacy in % with Sphaerotheca fuliginea (250 ppm) stood at 80%.
